Patent US8022206B2 (OSI Pharmaceuticals, LLC, priority 2008, dated 2011)
One block for each compound: values may come before it.

Columns and labels:
RON (human) = RON (human) (Homo sapiens, UniProt Q04912); test: RON (human) AlphaScreen kinase assay, Km of ATP; assay type: biochemical; settings: AlphaScreen, Km of ATP; read-out: RON biochemical IC50
Description: (§1) Someone skilled in the art will appreciate that a variety of assay formats may be used to determine the activity of the compounds of this invention. For example, AlphaScreen (Amplified Luminescent Proximity Homogeneous Assay) technology was used with the kinases described below. Assay ATP concentrations for individual kinases are included in the text.
Desired compound is added in a final concentration of 1% DMSO with control being vehicle of DMSO alone. […] Enzyme is added to initiate the reaction and incubated for 30 min at RT. In subdued light, appropriate amount of PT66 donor and acceptor beads (diluted 1:260 from manufacturer's provision in a 25 mM Tris HCl (pH=7.5), 200 mM NaCl, 100 mM EDTA, 0.3% BSA buffer) are added to the wells. The plates, incubated for 1 h, are read on an AlphaQuest plate reader.

MET (human) = MET (human) (Homo sapiens, UniProt P08581); test: MET (human) AlphaScreen kinase assay, Km of ATP; assay type: biochemical; settings: AlphaScreen, Km of ATP; read-out: Met biochemical IC50
Chain of MET (human) (P08581 25-1390): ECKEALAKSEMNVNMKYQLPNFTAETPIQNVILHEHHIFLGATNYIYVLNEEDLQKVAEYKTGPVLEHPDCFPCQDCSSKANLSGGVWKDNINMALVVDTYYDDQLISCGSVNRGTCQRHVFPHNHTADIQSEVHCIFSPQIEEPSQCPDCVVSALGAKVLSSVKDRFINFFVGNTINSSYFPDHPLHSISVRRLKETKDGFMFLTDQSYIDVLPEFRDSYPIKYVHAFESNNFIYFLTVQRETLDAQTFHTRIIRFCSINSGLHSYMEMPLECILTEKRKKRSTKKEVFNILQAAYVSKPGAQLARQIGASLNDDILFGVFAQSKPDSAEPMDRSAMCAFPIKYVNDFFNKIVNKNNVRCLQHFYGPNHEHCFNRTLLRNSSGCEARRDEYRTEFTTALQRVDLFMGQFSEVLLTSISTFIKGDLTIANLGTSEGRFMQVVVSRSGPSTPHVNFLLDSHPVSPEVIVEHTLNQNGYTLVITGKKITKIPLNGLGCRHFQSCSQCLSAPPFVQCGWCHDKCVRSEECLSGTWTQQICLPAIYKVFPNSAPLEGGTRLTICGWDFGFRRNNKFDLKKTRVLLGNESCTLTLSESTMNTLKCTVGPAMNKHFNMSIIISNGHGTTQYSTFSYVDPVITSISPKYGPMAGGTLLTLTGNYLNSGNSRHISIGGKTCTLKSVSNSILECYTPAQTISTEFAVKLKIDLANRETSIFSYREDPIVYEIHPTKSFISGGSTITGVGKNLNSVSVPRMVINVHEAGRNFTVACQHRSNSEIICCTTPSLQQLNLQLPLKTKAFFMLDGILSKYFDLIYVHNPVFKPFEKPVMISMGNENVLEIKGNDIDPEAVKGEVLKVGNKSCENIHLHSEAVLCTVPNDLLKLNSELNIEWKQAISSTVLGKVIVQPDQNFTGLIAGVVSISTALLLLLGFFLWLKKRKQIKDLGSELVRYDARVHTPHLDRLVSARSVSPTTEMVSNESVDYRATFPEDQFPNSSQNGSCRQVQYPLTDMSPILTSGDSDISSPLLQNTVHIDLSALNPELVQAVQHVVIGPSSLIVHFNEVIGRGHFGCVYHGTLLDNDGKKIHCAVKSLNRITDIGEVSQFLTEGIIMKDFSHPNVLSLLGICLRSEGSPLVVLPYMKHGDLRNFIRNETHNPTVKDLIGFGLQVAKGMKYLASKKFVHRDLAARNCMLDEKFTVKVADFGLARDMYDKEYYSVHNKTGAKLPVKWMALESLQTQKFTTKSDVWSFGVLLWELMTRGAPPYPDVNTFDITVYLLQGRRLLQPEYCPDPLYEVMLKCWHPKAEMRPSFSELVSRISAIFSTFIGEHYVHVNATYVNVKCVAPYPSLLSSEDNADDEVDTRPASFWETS
Description: as §1
Desired compound is added in a final concentration of 1% DMSO with control being vehicle of DMSO alone. MET is diluted to the optimized concentration (optimized on a lot-by-lot basis) in an enzyme diluent buffer (50 mM Tris pH=7.4, 1% glycerol, 0.03% Brij35, 0.24 mM EGTA, 1 mM DTT, and 0.003% BSA). Enzyme is added to initiate the reaction and incubated for 60 min at RT. In subdued light, appropriate amount of PT66 donor and acceptor beads (diluted 1:260 from manufacturer's provision in a 25 mM Tris HCl (pH=7.5), 400 mM NaCl, 100 mM EDTA, 0.3% BSA buffer) are added to the wells. The plates, incubated for 1 h, are read on an AlphaQuest plate reader

Chain of RON (human) (Q04912 25-1400): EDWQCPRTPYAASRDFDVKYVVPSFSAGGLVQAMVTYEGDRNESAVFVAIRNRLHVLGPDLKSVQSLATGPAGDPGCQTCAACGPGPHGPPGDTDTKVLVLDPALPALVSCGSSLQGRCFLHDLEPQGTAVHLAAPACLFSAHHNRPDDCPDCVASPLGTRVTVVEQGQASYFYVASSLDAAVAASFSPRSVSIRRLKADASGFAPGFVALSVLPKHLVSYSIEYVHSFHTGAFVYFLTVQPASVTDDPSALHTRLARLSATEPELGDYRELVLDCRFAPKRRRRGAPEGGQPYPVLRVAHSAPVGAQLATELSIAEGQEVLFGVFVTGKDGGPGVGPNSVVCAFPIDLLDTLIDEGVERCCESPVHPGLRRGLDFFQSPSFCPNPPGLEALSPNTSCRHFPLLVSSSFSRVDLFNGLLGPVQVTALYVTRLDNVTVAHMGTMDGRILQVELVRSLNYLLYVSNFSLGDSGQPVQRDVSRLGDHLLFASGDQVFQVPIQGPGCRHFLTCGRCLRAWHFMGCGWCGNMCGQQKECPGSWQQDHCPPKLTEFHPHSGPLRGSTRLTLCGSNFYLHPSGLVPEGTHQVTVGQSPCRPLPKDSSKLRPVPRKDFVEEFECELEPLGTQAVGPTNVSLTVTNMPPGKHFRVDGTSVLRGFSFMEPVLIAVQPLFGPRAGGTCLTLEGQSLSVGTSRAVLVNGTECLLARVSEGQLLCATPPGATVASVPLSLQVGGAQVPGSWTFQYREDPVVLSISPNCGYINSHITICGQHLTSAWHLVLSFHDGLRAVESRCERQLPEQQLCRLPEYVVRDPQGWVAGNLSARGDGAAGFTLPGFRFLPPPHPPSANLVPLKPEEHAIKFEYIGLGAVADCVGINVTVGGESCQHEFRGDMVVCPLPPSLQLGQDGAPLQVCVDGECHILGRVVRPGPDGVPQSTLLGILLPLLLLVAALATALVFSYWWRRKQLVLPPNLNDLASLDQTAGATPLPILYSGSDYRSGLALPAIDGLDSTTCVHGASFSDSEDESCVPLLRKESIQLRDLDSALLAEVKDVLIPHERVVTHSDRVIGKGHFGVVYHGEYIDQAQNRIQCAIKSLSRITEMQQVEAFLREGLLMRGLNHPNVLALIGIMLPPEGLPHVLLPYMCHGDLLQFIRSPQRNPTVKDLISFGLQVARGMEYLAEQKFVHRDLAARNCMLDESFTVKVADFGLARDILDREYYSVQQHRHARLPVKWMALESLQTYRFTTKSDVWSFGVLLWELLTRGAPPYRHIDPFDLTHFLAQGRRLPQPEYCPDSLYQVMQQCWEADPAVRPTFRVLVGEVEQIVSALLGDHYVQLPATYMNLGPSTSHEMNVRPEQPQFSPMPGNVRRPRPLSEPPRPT

SMILES: C[C@@H](Oc1c(N)ncc2c(C3=CCN(C(=O)Oc4ccccc4)CC3)coc12)c1c(Cl)ccc(F)c1Cl [Example 55, 4-{6-Amino-7-[(R)-1-(2,6-dichloro-3-fluorophenyl)-ethoxy]-furo[3,2-c]pyridin-3-yl}-3,6-dihydro-2H-pyridine-1-carboxylic acid phenyl ester]
IC50 (RON (human)): 500 to 5000 nM | IC50 (MET (human)): < 500 nM

SMILES: C[C@@H](Oc1c(N)ncc2c(C3=CCN(C(=O)N4CCNCC4)CC3)coc12)c1c(Cl)ccc(F)c1Cl [Example 33, (4-{6-Amino-7-[(R)-1-(2,6-dichloro-3-fluorophenyl)-ethoxy]-furo[3,2-c]pyridin-3-yl}-3,6-dihydro-2H-pyridin-1-yl)-piperazin-1-ylmethanone]
IC50 (RON (human)): < 500 nM | IC50 (MET (human)): < 500 nM

SMILES: C[C@@H](Oc1c(N)ncc2c(C3=CCN(C(=O)N4CC5CC4CO5)CC3)coc12)c1c(Cl)ccc(F)c1Cl (stereo partly drawn) [Example 223, (4-{6-Amino-7-[(R)-1-(2,6-dichloro-3-fluorophenyl)ethoxy]-furo[3,2-c]pyridin-3-yl}-3,6-dihydro-2H-pyridin-1-yl)-(2-oxa-5-azabicyclo[2.2.1]hept-5-yl)methanone]
IC50 (RON (human)): 500 to 5000 nM | IC50 (MET (human)): 500 to 5000 nM

SMILES: C[C@@H](Oc1c(N)ncc2c(-c3ccc(C(=O)N(C)C)cc3)coc12)c1c(Cl)ccc(F)c1Cl [Example 72, 4-{6-Amino-7-[(R)-1-(2,6-dichloro-3-fluorophenyl)ethoxy]-furo[3,2-c]pyridin-3-yl}-N,N-dimethylbenzamide]
IC50 (RON (human)): 500 to 5000 nM | IC50 (MET (human)): < 500 nM

SMILES: C[C@@H](Oc1c(N)ncc2c(C(=O)NC3CCNCC3)coc12)c1c(Cl)ccc(F)c1Cl [Example 182, 6-Amino-7-[(R)-1-(2,6-dichloro-3-fluorophenyl)ethoxy]furo[3,2-c]pyridine-3-carboxylic acid piperidin-4-ylamide]
IC50 (RON (human)): 500 to 5000 nM | IC50 (MET (human)): < 500 nM

Continued, values first:

IC50 (RON (human)): 500 to 5000 nM | IC50 (MET (human)): 500 to 5000 nM
SMILES: CC(Oc1c(N)ncc2c(-c3cnn(C4CCNCC4)c3)coc12)c1nc2ccccc2s1 (stereo not shown) [Example 404, 7-(1-Benzothiazol-2-ylethoxy)-3-(1-piperidin-4-yl-1H-pyrazol-4-yl)furo[3,2-c]pyridin-6-ylamine]

IC50 (RON (human)): 500 to 5000 nM | IC50 (MET (human)): < 500 nM
SMILES: CC(Cc1ccccc1Cl)Oc1c(N)ncc2c(-c3cnn(C4CCNCC4)c3)coc12 (stereo not shown) [Example 426, 7-[2-(2-Chlorophenyl)-1-methylethoxy]-3-(1-piperidin-4-yl-1H-pyrazol-4-yl)furo[3,2-c]pyridin-6-ylamine]

IC50 (RON (human)): 500 to 5000 nM | IC50 (MET (human)): 500 to 5000 nM
SMILES: Cn1c(Cc2ccccc2)ncc(-c2ccc(COc3c(N)ncc4c(Br)coc34)c(F)c2)c1=O [Example 466, 5-[4-(6-Amino-3-bromofuro[3,2-c]pyridin-7-yloxymethyl)-3-fluorophenyl]-2-benzyl-3-methyl-3H-pyrimidin-4-one]

IC50 (RON (human)): < 500 nM | IC50 (MET (human)): 500 to 5000 nM
SMILES: CC(C)[C@H](O)C(=O)N1CC=C(c2coc3c(O[C@H](C)c4c(Cl)ccc(F)c4Cl)c(N)ncc23)CC1 [Example 267, (2S)-1-[4-{6-Amino-7-[(1R)-1-(2,6-dichloro-3-fluorophenyl)ethoxy]furo[3,2-c]pyridin-3-yl}-3,6-dihydropyridin-1(2H)-yl]-2-hydroxy-3-methylbutan-1-one]

IC50 (RON (human)): 500 to 5000 nM | IC50 (MET (human)): 500 to 5000 nM
SMILES: C[C@@H](Oc1c(N)ncc2c(-c3csc(C=O)c3)coc12)c1c(Cl)ccc(F)c1Cl [Example 302, 4-{6-Amino-7-[(R)-1-(2,6-dichloro-3-fluorophenyl)ethoxy]furo[3,2-c]pyridin-3-yl}thiophene-2-carbaldehyde]

IC50 (RON (human)): 500 to 5000 nM | IC50 (MET (human)): 500 to 5000 nM
SMILES: CC(Oc1c(N)ncc2c(-c3cnn(C4CCNCC4)c3)coc12)c1ncc(C(F)(F)F)cc1Cl (stereo not shown) [Example 413, 7-[1-(3-Chloro-5-trifluoromethylpyridin-2-yl)ethoxy]-3-(1-piperidin-4-yl-1H-pyrazol-4-yl)furo[3,2-c]pyridin-6-ylamine]
